From ChEMBL document CHEMBL2311409, “Design, synthesis and biological evaluation of coumarin alkylamines as potent and selective dual binding site inhibitors of acetylcholinesterase” (Bioorg Med Chem, 2013)

How the values were obtained:
Cholinesterase = Cholinesterase (Equus caballus, UniProt P81908)
Description: Inhibition of equine butyrylcholinesterase using butyrylthiocholine as substrate incubated for 20 mins prior to substrate addition measured after 3 mins by Ellman's method

Acetylcholinesterase [1] = molecular target: T1, Acetylcholinesterase (Bos taurus, UniProt P23795)
T1 sequence (P23795 whole entry): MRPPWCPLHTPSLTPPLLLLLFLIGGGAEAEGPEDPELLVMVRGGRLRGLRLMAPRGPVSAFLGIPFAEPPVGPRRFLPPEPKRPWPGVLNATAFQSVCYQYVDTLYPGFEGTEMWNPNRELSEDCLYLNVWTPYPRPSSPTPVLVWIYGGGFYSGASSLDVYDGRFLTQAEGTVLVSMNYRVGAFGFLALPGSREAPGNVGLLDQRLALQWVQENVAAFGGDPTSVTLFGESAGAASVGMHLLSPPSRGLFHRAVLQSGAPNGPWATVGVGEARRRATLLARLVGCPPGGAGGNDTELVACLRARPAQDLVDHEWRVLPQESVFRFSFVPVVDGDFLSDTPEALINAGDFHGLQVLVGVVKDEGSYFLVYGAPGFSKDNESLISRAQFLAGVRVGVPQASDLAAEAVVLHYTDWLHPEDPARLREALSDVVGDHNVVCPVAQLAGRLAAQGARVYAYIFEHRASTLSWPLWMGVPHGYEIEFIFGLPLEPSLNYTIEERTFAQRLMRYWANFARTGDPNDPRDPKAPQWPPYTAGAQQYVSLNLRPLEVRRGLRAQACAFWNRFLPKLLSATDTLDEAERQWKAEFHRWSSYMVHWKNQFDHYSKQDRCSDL
Description: Inhibition of bovine acetylcholinesterase using acetylcholine iodide as substrate incubated for 20 mins prior to substrate addition measured after 3 mins by Ellman's method

[2] = molecular target: Cholinesterase (Equus caballus) (UniProt P81908); assay: Inhibition of equine butyrylcholinesterase using butyrylthiocholine as substrate at 10 uM incubated for 20 mins prior to substrate addition measured after 3 mins by Ellman's method
Acetylcholinesterase [3] = molecular target: Acetylcholinesterase (Homo sapiens, UniProt P22303); assay: Inhibition of human acetylcholinesterase
Acetylcholinesterase [4] = molecular target: T1, Acetylcholinesterase; assay: Mixed-type reversible inhibition of bovine acetylcholinesterase using S-acetylthiocholine as substrate incubated for 20 mins prior to substrate addition measured after 3 mins by Lineweaver-Burk plot analysis

Cholinesterase, sequence (P81908 whole entry): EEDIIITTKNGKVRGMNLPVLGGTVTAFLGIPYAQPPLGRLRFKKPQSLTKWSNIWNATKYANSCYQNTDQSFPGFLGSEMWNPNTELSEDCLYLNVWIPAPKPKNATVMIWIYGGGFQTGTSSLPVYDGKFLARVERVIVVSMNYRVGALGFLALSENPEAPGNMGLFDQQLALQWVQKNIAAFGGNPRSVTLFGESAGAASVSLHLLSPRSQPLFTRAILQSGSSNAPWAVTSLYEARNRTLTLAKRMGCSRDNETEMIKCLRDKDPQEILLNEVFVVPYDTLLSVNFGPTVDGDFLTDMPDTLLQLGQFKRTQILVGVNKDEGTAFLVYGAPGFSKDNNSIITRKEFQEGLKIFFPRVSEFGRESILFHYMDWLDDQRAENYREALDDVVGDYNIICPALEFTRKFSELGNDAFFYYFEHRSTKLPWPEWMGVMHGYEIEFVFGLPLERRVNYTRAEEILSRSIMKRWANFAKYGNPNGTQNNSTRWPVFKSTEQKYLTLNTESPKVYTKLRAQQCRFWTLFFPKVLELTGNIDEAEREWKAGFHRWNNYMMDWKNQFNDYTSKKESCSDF
Cholinesterase (Equus caballus), sequence (P81908 whole entry): as above
Acetylcholinesterase (Homo sapiens, UniProt P22303), sequence (P22303 whole entry): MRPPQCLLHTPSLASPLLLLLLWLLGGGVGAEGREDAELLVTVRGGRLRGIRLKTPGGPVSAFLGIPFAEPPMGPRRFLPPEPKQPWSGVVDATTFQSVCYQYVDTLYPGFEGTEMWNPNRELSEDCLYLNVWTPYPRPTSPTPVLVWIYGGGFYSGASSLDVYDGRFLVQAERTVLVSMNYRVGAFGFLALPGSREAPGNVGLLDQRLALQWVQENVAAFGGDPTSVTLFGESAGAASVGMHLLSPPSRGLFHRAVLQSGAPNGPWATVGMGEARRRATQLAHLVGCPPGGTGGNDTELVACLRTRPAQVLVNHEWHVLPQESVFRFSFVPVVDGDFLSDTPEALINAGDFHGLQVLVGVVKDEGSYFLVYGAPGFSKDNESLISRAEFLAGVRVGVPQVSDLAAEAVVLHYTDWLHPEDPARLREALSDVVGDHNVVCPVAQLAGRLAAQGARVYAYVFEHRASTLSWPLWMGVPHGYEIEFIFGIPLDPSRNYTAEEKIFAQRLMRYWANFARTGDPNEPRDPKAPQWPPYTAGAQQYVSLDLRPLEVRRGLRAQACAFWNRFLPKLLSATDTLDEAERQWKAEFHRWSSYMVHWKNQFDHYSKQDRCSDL

`CN(CCCOc1cc2ccccc2oc1=O)Cc1ccccc1` was tested, and the IC50 (Cholinesterase) was 4 µM and the IC50 (Acetylcholinesterase [1]) was 4.5 µM.

For `COc1cc2cc(NC(=O)CN(C)Cc3ccccc3)c(=O)oc2cc1OC`, the inhibition [2] was 11% and the IC50 (Acetylcholinesterase [1]) was 26 µM.

`COc1cc2cc(C(=O)OCC3CCN(Cc4ccccc4)CC3)c(=O)oc2cc1OC` was tested, and the IC50 (Cholinesterase) was 4.7 µM and the IC50 (Acetylcholinesterase [1]) was 0.073 µM.

`COc1cc2cc(OC3CCN(Cc4ccccc4)CC3)c(=O)oc2cc1OC` was tested, and the inhibition [2] was 36% and the IC50 (Acetylcholinesterase [1]) was 1.5 µM.

`COc1cc2cc(C(=O)NCCCN(C)Cc3ccccc3)c(=O)oc2cc1OC` showed an inhibition [2] of 24% and an IC50 (Acetylcholinesterase [1]) of 0.086 µM.

Work on `COc1cc2cc(NC(=O)[C@H]3CCC[C@@H](NCc4ccccc4)C3)c(=O)oc2cc1OC` (relative stereo) yielded an IC50 (Acetylcholinesterase [3]) of 0.043 µM, a Ki (Acetylcholinesterase [4]) of 0.0086 µM and an IC50 (Cholinesterase) of 33 µM. For the same molecule, the IC50 (Acetylcholinesterase [1]) was 0.0076 µM.

In the case of `O=c1oc2ccccc2cc1OC1CCN(Cc2ccccc2)CC1`, the IC50 (Cholinesterase) is reported as 7.9 µM and the IC50 (Acetylcholinesterase [1]) is reported as 4.5 µM.

`COc1cc2cc(NC(=O)CCN(C)Cc3ccccc3)c(=O)oc2cc1OC` gave an inhibition [2] of 0% and an IC50 (Acetylcholinesterase [1]) of 14 µM.

Work on `CN(CCC(=O)Nc1cc2ccccc2oc1=O)Cc1ccccc1` yielded an inhibition [2] of 0% and an IC50 (Acetylcholinesterase [1]) of 66 µM.

With `COc1ccc2oc(=O)c(OC3CCN(Cc4ccccc4)CC3)cc2c1` the inhibition [2] was 34% and the IC50 (Acetylcholinesterase [1]) was 7.4 µM.

`COc1cc2cc(C(=O)NCCCCN(C)Cc3ccccc3)c(=O)oc2cc1OC` gave an inhibition [2] of 23% and an IC50 (Acetylcholinesterase [1]) of 0.021 µM.

`COc1cc2cc(NC(=O)CCCN(C)Cc3ccccc3)c(=O)oc2cc1OC` was tested, and the inhibition [2] was 43% and the IC50 (Acetylcholinesterase [1]) was 0.33 µM.

`COc1cc2cc(C(=O)NC3CCN(Cc4ccccc4)CC3)c(=O)oc2cc1OC` showed an inhibition [2] of 19% and an IC50 (Acetylcholinesterase [1]) of 0.028 µM.

Work on `COc1cc2cc(OCC3CCN(Cc4ccccc4)CC3)c(=O)oc2cc1OC` yielded an IC50 (Cholinesterase) of 3.9 µM and an IC50 (Acetylcholinesterase [1]) of 0.021 µM.

Work on `COc1ccc2cc(OC3CCN(Cc4ccccc4)CC3)c(=O)oc2c1` yielded an inhibition [2] of 46% and an IC50 (Acetylcholinesterase [1]) of 12 µM.

With `COc1cc2cc(C(=O)OC3CCN(Cc4ccccc4)CC3)c(=O)oc2cc1OC` the inhibition [2] was 12% and the IC50 (Acetylcholinesterase [1]) was 0.014 µM.

`COc1cc2cc(C(=O)N3CCN(Cc4ccccc4)CC3)c(=O)oc2cc1OC` was tested, and the inhibition [2] was 12% and the IC50 (Acetylcholinesterase [1]) was 4 µM.

Work on `COc1cc2cc(C(=O)OCCCN(C)Cc3ccccc3)c(=O)oc2cc1OC` yielded an inhibition [2] of 38% and an IC50 (Acetylcholinesterase [1]) of 0.111 µM.

`COc1cc2cc(C(=O)NCCN(C)Cc3ccccc3)c(=O)oc2cc1OC` was tested, and the inhibition [2] was 15% and the IC50 (Acetylcholinesterase [1]) was 9 µM.
